Experimental data reported in patent US8716530B2, “Facially amphiphilic polyaryl and polyarylalkynyl polymers and oligomers and uses thereof” (The Trustess of the University of Pennsylvania, priority 2004, dated 2014).
≈ marks a conversion by molar mass, not a printed value. Where “and” joins values, the source holds several entries; their conditions need not be identical. Identical values can stand only once. Like-named read-outs stand apart in the source and are kept apart here.

Tests used:
[1] = test system: F. tularensis; experiment: microbe, parasite or virus in culture; format: cell-based; details: Francisella tularensis
[2] = test system: Y. pestis; experiment: microbe, parasite or virus in culture; format: cell-based; details: Yersinia pestis, 30 h, read-out: MIC100 Y. pestis (30 hr)
[3] = test system: Klebsiella aerogenes; format: cell-based
[4] = test system: Serratia marcescens; format: cell-based
[5] = test system: Staphylococcus aureus; experiment: MIC100, control microbial agent, NCCLS guidelines; format: cell-based; details: strain ATCC29213, control organism (Table 5), read-out: MIC100 S. aureus ATCC29213
[6] = test system: Streptococcus gordonii; format: cell-based
[7] = test system: E. coli; experiment: Modified NCCLS microbroth dilution MIC assay; format: cell-based; details: Escherichia coli
[8] = test system: Bacillus cereus; format: cell-based
[9] = test system: K. pneumonia; experiment: Modified NCCLS microbroth dilution MIC assay; details: Klebsiella pneumoniae, read-out: K. pneumonia MIC
[10] = test system: Escherichia coli; format: cell-based
[11] = test system: B. anthracis; experiment: microbe, parasite or virus in culture; format: cell-based, Bacillus anthracis
[12] = test system: Candida albicans; experiment: MIC100, clinical isolates of hospital-acquired pathogens (Table 7); format: cell-based; details: one table line per isolate, RPMI synthetic medium, in µg/mL
[13] = test system: B. subtilis; experiment: Modified NCCLS microbroth dilution MIC assay; details: Bacillus subtilis
[14] = test system: Neisseria sicca; format: cell-based
[15] = test system: Klebsiella pneumoniae; format: cell-based
[16] = test system: Salmonella typhimurium; format: cell-based
[17] = test system: Streptococcus agalactiae; format: cell-based
[18] = test system: Streptococcus pneumoniae; experiment: MIC100, clinical isolates of hospital-acquired pathogens (Table 7); format: cell-based
[19] = test system: Staphylococcus epidermidis; format: cell-based
[20] = test system: Penicillium funiculosum; experiment: Antifungal MIC/MFC, NCCLS M38-A; format: cell-based
Procedure: (§1) MIC endpoints were determined for A. fumigatus, P. funiculosum, C. globosum and T. virens according to current NCCLS guidelines defined for testing A. fumigatus (NCCLS M38-A, 2002). […] Amphotericin B was included in the screen with C. albicans as a positive control. All MIC testing was done in 96 well microtiter panels using RPMI 1640 (with glutamine and without bicarbonate) broth as a growth media. Incubation was at 35° C., and growth was read at 48, 72, (and for some slow growing fungal species, 96 hours). […] MFC (minimal fungicidal concentrations) endpoints were calculated using a modified methodology based on the NCCLS defined methodology for measuring minimal bactericidal concentrations (MBC). Experimentation to calculate MFCs was undertaken only for those organisms for which an MIC endpoint was satisfactorily calculated. MFCs are defined as the concentration required to reduce the number of viable organisms by at least 90%.

[21] = test system: Trichoderma virens; experiment: Antifungal MIC/MFC, NCCLS M38-A; format: cell-based
Procedure: as §1

[22] = test system: Aspergillus fumigatus; experiment: Antifungal MIC/MFC, NCCLS M38-A; format: cell-based
Procedure: as §1

[23] = test system: Chaetomium globosum; experiment: Antifungal MIC/MFC, NCCLS M38-A; format: cell-based
Procedure: as §1

[24] = test system: Streptococcus pyogenes; experiment: MIC100, clinical isolates of hospital-acquired pathogens (Table 7); format: cell-based; details: Mueller Hinton+2-5% lysed horse blood, in µg/mL
[25] = test system: Staphylococcus saprophyticus; format: cell-based
[26] = test system: Bacillus globigii; format: cell-based
[27] = test system: Haemophilus influenzae; experiment: MIC100, clinical isolates of hospital-acquired pathogens (Table 7); format: cell-based; details: Mueller Hinton+NAD+yeast extract+hematin, in µg/mL
[28] = test system: Enterobacter cloacae; format: cell-based
[29] = test system: Pseudomonas aeruginosa; format: cell-based
[30] = test system: E. coli; experiment: MIC100, modified NCCLS microbroth dilution (Table 6); format: cell-based; details: Escherichia coli
[31] = test system: Moraxella catarrhalis; format: cell-based
[32] = test system: Listeria monocytogenes; format: cell-based
[33] = test system: Enterococcus faecalis; format: cell-based
[34] = test system: Pseudomonas stuarti; format: cell-based
[35] = test system: Proteus mirabilis; format: cell-based
[36] = test system: human erythrocytes; experiment: Hemolysis of human erythrocytes (HC50)
[37] = test system: Staphylococcus aureus; format: cell-based
[38] = test system: Enterococcus faecalis; experiment: MIC100, clinical isolates of hospital-acquired pathogens (Table 7); format: cell-based; details: control strain ATCC 29212
[39] = concentration reducing viable organisms by at least 90%

NCCc1cc(Br)cc(C#Cc2cccc(C#Cc3cc(Br)cc(CCN)c3)c2)c1 [Compound 3]
MIC ([1]; read-out: MIC100 F. tularensis 17135): 1 µg/mL (≈ 1.91 µM) | MIC ([1]; read-out: MIC100 F. tularensis 17137): 1 µg/mL (≈ 1.91 µM) | MIC [2]: 4 µg/mL (≈ 7.66 µM) | MIC100 Klebsiella aerogenes [3]: 3.4 µg/mL (≈ 6.51 µM) | MIC100 Serratia marcescens [4]: 3.4 µg/mL (≈ 6.51 µM) | MIC [5]: 2 µg/mL (≈ 3.83 µM) | MIC100 Streptococcus gordonii [6]: 1.7 µg/mL (≈ 3.25 µM) | MIC90 ([7]; read-out: MIC90 E. Coli): 0.8 µg/mL (≈ 1.53 µM) | MIC ([7]; 18 to 20 hours incubation, OD 600 nm): 0.8 µg/mL (≈ 1.53 µM) | MBC ([7]; E. coli D31, defined as >3 log reduction in bacterial titre): 0.8 µg/mL (≈ 1.53 µM) | MIC100 Bacillus cereus [8]: 1.7 µg/mL (≈ 3.25 µM) | MIC [9]: 1.7 µg/mL (≈ 3.25 µM) | MIC100 Escherichia coli 6C4468 [10]: 1.7 µg/mL (≈ 3.25 µM) | MIC100 Escherichia coli CIS [10]: 1.7 µg/mL (≈ 3.25 µM) | MIC100 Escherichia coli D31 [10]: 0.84 µg/mL (≈ 1.61 µM) | MIC ([11]; Bacillus anthracis, 24 h, read-out: MIC100 B. anthracis (24 hr)): 1 µg/mL (≈ 1.91 µM) | Time course of growth inhibition of Bacillus anthracis ([11]; growth recorded at 2 hour intervals over 24 hours (FIG. 3)): complete inhibition of growth at early and late time points | mic (MIC100) Candida albicans [12]: 0.5 and 1 | MIC ([13]; read-out: B. subtilis MIC): 1.6 µg/mL (≈ 3.06 µM) | MIC90 ([13]; read-out: MIC90 B. subtilis): 1.6 µg/mL (≈ 3.06 µM) | MIC100 Neisseria sicca [14]: 3.4 µg/mL (≈ 6.51 µM) | MIC100 Klebsiella pneumoniae [15]: 1.7 µg/mL (≈ 3.25 µM) | MIC100 Salmonella typhimurium [16]: 3.4 µg/mL (≈ 6.51 µM) | MIC100 Streptococcus agalactiae [17]: 0.4 µg/mL (≈ 0.766 µM) | mic (MIC100) Streptococcus pneumoniae ([18]; clinical isolates, no phenotype given, Mueller Hinton+2-5% lysed horse blood, in µg/mL): 2 | mic (MIC100) Streptococcus pneumoniae ATCC 49619 ([18]; control strain ATCC 49619): 2 µg/mL | mic (MIC100) Streptococcus pneumoniae PEN-R ([18]; penicillin-resistant clinical isolates, Mueller Hinton+2-5% lysed horse blood, in µg/mL): 2 and 1 | MIC100 Staphylococcus epidermidis [19]: 0.8 µg/mL (≈ 1.53 µM) | MIC Penicillium funiculosum ([20]; RPMI 1640, 35° C.): 1 µg/mL (≈ 1.91 µM) | MFC Penicillium funiculosum [20, 39]: 2 µg/mL (≈ 3.83 µM) | MIC Trichoderma virens ([21]; RPMI 1640, 35° C.): 32/32 | MFC Trichoderma virens [21, 39]: 32/32 | MIC Aspergillus fumigatus ([22]; RPMI 1640, 35° C.): 32/32 | MFC Aspergillus fumigatus [22, 39]: 32/32 | MIC Chaetomium globosum ([23]; RPMI 1640, 35° C.): 0.5 µg/mL (≈ 0.957 µM) | MFC Chaetomium globosum [23, 39]: 8 µg/mL (≈ 15.3 µM) | mic (MIC100) Streptococcus pyogenes [24]: 2 and 4 | MIC100 Staphylococcus saprophyticus [25]: 0.8 µg/mL (≈ 1.53 µM) | MIC100 Bacillus globigii [26]: 3.4 µg/mL (≈ 6.51 µM) | mic (MIC100) Haemophilus influenzae [27]: 4 | MIC100 Enterobacter cloacae [28]: 1.7 µg/mL (≈ 3.25 µM) | MIC100 Pseudomonas aeruginosa [29]: 3.4 µg/mL (≈ 6.51 µM) | MIC ([30]; strain ATCC25922, read-out: MIC100 E. coli ATCC25922): 2 µg/mL (≈ 3.83 µM) | MIC ([30]; strain OC2530, read-out: MIC100 E. coli OC2530): 0.5 µg/mL (≈ 0.957 µM) | MIC100 Moraxella catarrhalis [31]: 0.84 µg/mL (≈ 1.61 µM) | MIC100 Listeria monocytogenes [32]: 1.7 µg/mL (≈ 3.25 µM) | MIC100 Enterococcus faecalis [33]: 0.84 µg/mL (≈ 1.61 µM) | MIC100 Pseudomonas stuarti [34]: > 6.6 µg/mL | MIC100 Proteus mirabilis [35]: > 6.6 µg/mL | Hemolysis HC50 ([36]; human erythrocytes, one hour incubation, 50% hemoglobin release, Table 1): 75 µg/mL | HC50 ([36]; human erythrocytes, Table 2): 75 µg/mL | Selectivity HC50/MIC E.coli ([36]; ratio of HC50 to E. coli MIC): 88.2 | MIC100 Staphylococcus aureus [37]: 1.7 µg/mL (≈ 3.25 µM) | mic (MIC100) Enterococcus faecalis ATCC 29212 [38]: 1 µg/mL
